Laboratory results published in the supplement of paper PMC11061612.

Experiments:
[1] = tested on: LS-1034 (Colorectal Carcinoma); assay: combination Emax (second highest fraction inhibited in the dose matrix, 72 h); higher = more inhibition; extreme values may be limits of the assay
Summary of the method: (§1)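 Cell lines grown in DMEM/F12 or RPMI with 10% FBS were plated in 1536-well plates and held 24 hours at 37°C, 5% CO2 before 72 hours of exposure to two-drug dose matrices, with DMSO typically at 0.2%. CellTiter-Glo 2.0 luminescence gave viability, which was converted to inhibition. Vehicle wells were set to 0 and blank wells to 1. Combination Emax is the second-highest inhibition in the matrix, and Bliss excess is the observed combination effect minus the expected EA + EB − EA·EB, where EA and EB are the single-agent effects.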

[2] = tested on: SK-CO-1 (Colorectal Carcinoma); assay: as above
Summary of the method: as §1

[3] = tested on: SCC-4 (Oral Cavity Carcinoma); assay: as above
Summary of the method: as §1

SK-N-SH (Neuroblastoma) = assay: as above
Summary of the method: as §1

[4] = tested on: CPC-N (Small Cell Lung Carcinoma); assay: as above
Summary of the method: as §1

NCI-H226 (Mesothelioma) = assay: as above
Summary of the method: as §1

[5] = tested on: BxPC-3 (Pancreatic Carcinoma); assay: Bliss excess, mean over the matrix (fraction); higher = more synergy
Summary of the method: as §1

ES6 (Ewing's Sarcoma) = assay: as above
Summary of the method: as §1

[6] = tested on: LS-1034 (Colorectal Carcinoma); assay: as above
Summary of the method: as §1

IST-MEL1 (Melanoma) = assay: as above
Summary of the method: as §1

KALS-1 (Glioblastoma) = assay: as above
Summary of the method: as §1

[7] = tested on: RCC-JW (Kidney Carcinoma); assay: as above
Summary of the method: as §1

GAK (Melanoma) = assay: as above
Summary of the method: as §1

[8] = tested on: NCI-H3118 (Head and Neck Carcinoma); assay: as above
Summary of the method: as §1

[9] = tested on: T84 (Colorectal Carcinoma); assay: as above
Summary of the method: as §1

[10] = tested on: IA-LM (Non-Small Cell Lung Carcinoma); assay: as above
Summary of the method: as §1

[11] = tested on: CPC-N (Small Cell Lung Carcinoma); assay: as above
Summary of the method: as §1

[12] = tested on: MS-1 (Small Cell Lung Carcinoma); assay: as above
Summary of the method: as §1

[13] = tested on: SKG-IIIa (Cervical Carcinoma); assay: as above
Summary of the method: as §1

[14] = tested on: SNU-423 (Hepatocellular Carcinoma); assay: as above
Summary of the method: as §1
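Throughout, for Bliss excess, mean over the matrix: after 72 h of two-drug dosing.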

SMILES	combination Emax [1]	combination Emax [2]	combination Emax [3]	combination Emax (SK-N-SH (Neuroblastoma))	combination Emax [4]	combination Emax (NCI-H226 (Mesothelioma))	Bliss excess [5]	Bliss excess (ES6 (Ewing's Sarcoma))	Bliss excess [6]	Bliss excess (IST-MEL1 (Melanoma))	Bliss excess (KALS-1 (Glioblastoma))	Bliss excess [7]	Bliss excess (GAK (Melanoma))	Bliss excess [8]	Bliss excess [9]	Bliss excess [10]	Bliss excess [11]	Bliss excess [12]	Bliss excess [13]	Bliss excess [14]
O=C(c1cc(Cc2n[nH]c(=O)c3ccccc23)ccc1F)N1CCN(C(=O)C2CC2)CC1 [Olaparib] + CN(CC[C@H](CSC1=CC=CC=C1)NC2=C(C=C(C=C2)S(=O)(=O)NC(=O)C3=CC=C(C=C3)N4CCC(CC4)[C@H](C5=CC=CC=C5C6=CC=C(C=C6)Cl)O)S(=O)(=O)C(F)(F)F)CCO [AZD4320] (first compound max 10 µM, 7x7, partner max 1 µM)	0.0945	0.949	0.338	0.688	0.856	0.105	-0.0424	-0.0216	-0.0388	-0.0373	-0.0432	-0.0532	-0.0104	-0.0182	-0.0441	0.0167	-0.0247	0.0013	-0.0526	-0.0182
O=C(c1cc(Cc2n[nH]c(=O)c3ccccc23)ccc1F)N1CCN(C(=O)C2CC2)CC1 [Olaparib] + COc1nnc2ccc(N3CCC(c4ccc(OCCN5CCN(C)C(=O)[C@H]5C)cc4)CC3)nn12 [AZD5153] (first compound max 10 µM, 7x7, partner max 1 µM)	0.453	0.7	0.322	0.428	0.369	0.376	-0.106	-0.0941	-0.0339	-0.045	-0.0141	-0.143	-0.0642	-0.0669	-0.0698	-0.153	-0.0557	-0.0426	-0.0383	-0.0546
O=C(c1cc(Cc2n[nH]c(=O)c3ccccc23)ccc1F)N1CCN(C(=O)C2CC2)CC1 [Olaparib] + Cc1c2c(nn1C)CSCc1cc(n(C)n1)CSc1cc(c3ccccc3c1)OCCCc1c(C(=O)O)n(C)c3c-2c(Cl)ccc13 [AZD5991] (first compound max 10 µM, 7x7, partner max 1 µM)	0.0008	0.785	0.128	0.333	0.215	0.107	-0.066	-0.0431	-0.0414	-0.0488	-0.0158	-0.0125	-0.0516	-0.006	-0.0266	-0.063	-0.0555	-0.0481	-0.0562	-0.0503
N#Cc1cnc(Nc2cc(NC[C@H]3CNCCO3)c(C(F)(F)F)cn2)cn1 [SRA737] + Nc1ccn([C@@H]2O[C@H](CO)[C@@H](O)C2(F)F)c(=O)n1 [Gemcitabine] (first compound max 10 µM, 7x7, partner max 0.3 µM)	0.919	0.899	0.758	0.852	0.916	0.462	-0.0421	-0.0212	0.145	-0.0023	0.0597	0.0179	-0.011	0.0007	0.0819	-0.0365	0.035	0.0566	0.13	0.0518
N#Cc1cnc(Nc2cc(NC[C@H]3CNCCO3)c(C(F)(F)F)cn2)cn1 [SRA737] + O=c1[nH]cc(F)c(=O)[nH]1 [5-Fluorouracil] (first compound max 10 µM, 7x7, partner max 20 µM)	0.77	0.654	0.628	0.57	0.861	0.145	-0.0019	-0.0508	0.0936	-0.0223	0.0085	-0.0355	-0.012	0.0141	0.0458	-0.0622	-0.036	-0.0821	0.0284	0.0005
Cc1nc(-c2cn3c(n2)-c2ccc(-c4cnn(C(C)(C)C(N)=O)c4)cc2OCC3)n(C(C)C)n1 [Taselisib] + O=C(Nc1ccc2[nH]nc(-c3ccncc3)c2c1)[C@@H]1CCN(CC(=O)N2CCN(c3ccc(-c4ncccn4)cc3)CC2)C1 [SCH772984] (first compound max 10 µM, 7x7, partner max 5 µM)	0.72	0.975	0.911	0.72	0.484	0.393	0.133	-0.0318	0.0307	0.106	-0.0253	-0.0167	0.0592	0.0633	0.072	-0.0058	0.0196	0.0145	0.0751	0.0656
CC1(C)CCC(CN2CCN(c3ccc(C(=O)NS(=O)(=O)c4ccc(NCC5CCOCC5)c([N+](=O)[O-])c4)c(Oc4cnc5[nH]ccc5c4)c3)CC2)=C(c2ccc(Cl)cc2)C1 [Venetoclax] + CS(=O)(=O)CCNCc1ccc(-c2ccc3ncnc(Nc4ccc(OCc5cccc(F)c5)c(Cl)c4)c3c2)o1 [Lapatinib] (first compound max 1 µM, 7x7, partner max 10 µM)	0.322	0.345	0.368	0.509	0.148	0.113	-0.0299	-0.0675	-0.0412	-0.0234	-0.0431	-0.0229	0.0293	-0.014	-0.0151	-0.0665	-0.019	-0.0021	-0.0674	-0.0254
